# Experimental data from PMC12746157, “Light-Regulated Agonists Spatiotemporally Activating the Vitamin D Receptor Mitigate Psoriasis-like Inflammation in Mice without Inducing Hypercalcemia” (ACS Central Science, 2025).
# Legend:
# [1] = Photostationary state (PSS) determination by HPLC-MS in aqueous assay buffer; assay type: physicochemical; conditions: 21 °C, HPLC-MS, 60 μM, aqueous buffer 0.6% DMSO
# Protocol: (§1) The UV–vis absorbance spectra of all molecules were measured in the dark and after the application of light of different wavelengths ranging from 365 to 770 nm (Figure A and Figures S1–S3). […] Consequently, violet/UV light below 405 nm efficiently promoted photoisomerization, which produced a dramatic decrease in the π-π* band and a significant increase in the n-π* band at around 445 nm (Table ). […] The proportion of molecules at the PSS in trans isomer upon constant illumination with light at 525 nm and cis at 365 nm was in general above 50%, reaching a remarkable >99% for compound 11d (Table and Figures S4 and S5). […] The greater stability of the trans isomer was consistent with previous quantum mechanical and molecular mechanics predictions. Measuring the photoisomerization properties of compound PhotoVDRM allowed us to determine the photoisomerization quantum yields of the compound by solving a differential equation for photoisomerization. We used MATLAB to perform regression and arrive at the following photoisomerization quantum yields: ϕ365 nm (trans) = 0.0427, ϕ365 nm (cis) = 0.0501, ϕ470 nm (trans) = 0.1857, and ϕ470 nm (cis) = 0.2281 (Figure S9). Compound PhotoVDRM was also evaluated in aqueous buffer used for pharmacological experiments (0.5% DMSO) showing a thermal relaxation of 3 h, almost 7 times faster than in pure DMSO (Figure B). […] A deeper photocharacterization of PhotoVDRM allowed us to measure the kinetics of photoconversion upon constant illumination with two wavelengths and three light intensities (Figure D and Figure S10). […] Indeed, with LED devices producing light at intensities as low as 0.05 mW/mm^2 we were able to transform trans to cis in around 15.5 s. This time was reduced to 6 and 2 s when the light intensity was increased to 0.15 and 0.75 mW/mm^2. […] Therefore, we proceeded to test the ability of the chemical library to activate the VDR under different light conditions.
# Photostationary state (PSS) determination. In a transparent vial, solutions of the compounds were prepared at a concentration of 60 µM from a 10 mM stock in DMSO, using the assay buffer of pharmacological experiments for dilution. Prior to illumination, a volume of 500 µL was transferred to an amber vial for the "dark" sample. The same procedure was repeated after exposing the transparent vial containing the 60 µM solutions to the following light conditions:
# 365nm for 3 minutes and 525nm for 3 minutes. […]
# difference on isomeric proportions. For each sample, 20 µL was analyzed by HPLC-MS, and the isomer ratios were determined at the isosbestic point.
# Isosbestic point determination. The solvent percentage for the elution of each isomer were calculated based on their retention times from HPLC analysis. Subsequently, 50 µM solutions were prepared from the 10 mM DMSO stock solution of each compound using the previously determined HPLC solvent mixture. The UV spectrum for each solution was recorded after illumination at 365 nm (30 seconds), at 400 nm (30 seconds), and at 525 nm (30 seconds). The spectra were overlaid to identify the isosbestic point of maximum intensity.
# HPLC conditions. Analytical HPLC was performed on a Thermo Ultimate 3000SD (Thermo Scientific Dionex) coupled to a PDA detector and Mass Spectrometer LTQ XL ESI-ion trap (Thermo Scientific). Cromatographic separations were performed using a ZORBAX Eclipse Plus C18 (4.6 x 150mm; 3.5µm) column. The mobile phase consisted of an isocratic mixture of solvent A (water with 0.05% of formic acid) and solvent B (acetonitrile with 0.05% formic acid) at a 3:7 ratio for compounds 10a-d and a 2:3 ratio for compounds 11a-d and 12a-d. […]
# [2] = UV-Vis absorption spectra and thermal relaxation of the cis isomers in DMSO; assay type: physicochemical; conditions: 60 μM in 100% DMSO, 37 °C
# Protocol: as §1
# 2. Photochemical characterization. […]
# (§2) (200 µL per well). The absorption spectra were recorded from 300 to 600 nm with 2 nm fixed intervals using a Tecan Spark 20M Multimode microplate reader. Initial measurements were performed in the dark, followed by spectra acquired immediately after each 3 min period of light irradiation at different wavelengths using 96-well LED array plates (LEDA Teleopto). Theoretical absorbance spectra corresponding to the pure cis isomer (100%) of each compound were calculated in order to obtain the theoretical percentage of cis isomer at each wavelength, according to the method described by Ernst Fischer (1967). Thermal relaxation kinetics of the experimental cis isomers were assessed in quartz cuvettes (10 mm optical path) containing freshly prepared 50 […]
# Dark state absorbance at 365 nm was recorded at 37
# ºC using a ThermoFisher Evolution 350 UV-Vis spectrophotometer. Samples were then irradiated for 3 minutes at 365 nm with a CoolLED pE-4000 light sourceto induce trans → cis photoisomerization.. Absorbance at 365 nm was subsequently monitored over 48 h: every 15 min during the first 24 h, and every 60 min during the following 24 h. Relaxation half-lives were determined by fitting the absorbance-time data to a […] exponential model using GraphPad Prism v10.4.1. […]
# [3] = Proportions of cis and trans at the photostationary state in DMSO from absorbance spectra (Ernst Fischer method); assay type: physicochemical
# Protocol: 2. Photochemical characterization.
# as §2, with “A 50 µM solution of each compound in DMSO was dispensed into a transparent 96-well plate (200” for “(200”, “(1967).” for “(1967). Thermal relaxation kinetics of the experimental cis isomers were assessed in quartz cuvettes (10 mm optical path) containing freshly prepared 50”
# Table S6. Proportions of cis and trans at the photostationary state in DMSO. […]
# [4] = biological target: T1, VDR (Homo sapiens, UniProt P11473); assay: Luminescent proximity homogeneous assay (AlphaScreen): interaction of purified VDR, RxR and TRAP220 coactivator fragment; assay type: biochemical
# Protocol: The activity of all molecules was evaluated using a luminescent proximity homogeneous assay to study interactions between purified VDR, RxR and a fragment of the transcriptional coactivator TRAP220 (Supporting Information). This method allowed us to monitor the interaction between TRAP220 and the activated VDR-RxR heterodimer, which is of mechanistic and physiological significance. Both the activation of VDR and the VDR-RxR heterodimer formation are necessary to promote the whole complex association. This system efficiently includes conformational events of the receptor upon activation that go beyond a simple binding measurement. […]
# The activity of all molecules was evaluated using an in-vitro luminescent proximity homogeneous assay by using the Alphascreen technology (Cat No. 6760619R, Perkin Elmer, now Revvity). In a transparent 96-well preplate, 10X concentrations of the compounds were prepared in assay buffer (0.1% bovine serum albumin, 2 mM 1,4-dithiothreitol, 25 mM HEPES and 100 mM NaCl; pH 7.3). LSN2148936 was used as positive control. Purified histidine-tagged VDR (44 µM), flag-RxRa (5.7 µM), biotin tagged TRAP220 transcriptional coactivator (500 µM), and the donor and acceptor beads from the AlphaScreen kit (2 µL/mL each), were diluted in assay buffer. In the dark, 6 µL/well of each test compound were pipetted on a white, shallow 96-well ProxiPlateTM […]
# (§3) (Perkin Elmer, now Revvity, Cat.No. 6006290) in duplicate. Immediately, 54 µL of the protein solution were added and the plate was covered and incubated for 30 min at room temperature in the dark. Meanwhile, the plate with the 10X dilutions was illuminated at 365 nm for 3 min in a 96-well DED array plate (LEDA Teleopto), to allow the photoconversion of the molecules to their cis configuration. The illuminated compounds were mixed with the protein solution and incubated as described above for the plate in the dark. After the incubation time, the counts of both, the dark and illuminated plates, were measured in a Tecan Spark 20M Multimode plate reader with defined settings (excitation: 680 nm, emission: 520-620 nm, excitation time: 100ms, integration time: 300 ms). Biotinylated-His6 peptide (PerkinElmer) was used as a quality control reagent for AlphaScreen® assays and to evaluate compound interaction with the method. The raw data were normalized to the effect of the buffer (0%) and the maximum response obtained with LSN2148936 (100%). Dose-response curves and EC50 values were calculated with Graphpad software. Each experiment was performed in triplicate, with 2 replicates per plate.
# 4. Hydrogen/deuterium exchange coupled to mass spectrometry (HDX-MS)
# The HDX-MS experiments were performed with an in-house automated modular system interfaced with an Orbitrap Exploris 480 mass spectrometer.1 Two inter-day experiments were conducted: one in the dark (first day) and one illuminated with 365 nm light (second day). Sample preparation and on-exchange reactions were performed on opaque plates (VWR® Real-Time […]
# mm, Part Nº BC5226) light source was positioned above the Tecan system used for sample preparation. The distance between the UV light and the opaque plates was 80 cm. The 365 nm light illuminated the sample preparation process and the on-exchange reaction on the second day.
# A 10 µM VDR-LBD protein stock solution was prepared in 20 mM HEPES buffer (with 150 mM NaCl, 10 mM D-L Methionine and 5 mM DTT) at pH 7.5. The compound 11b was prepared at 10 mM in DMSO. The protein: compound-complex (1:10 molar ratio) was pre-incubated for 1h before the first on-exchange reaction. The HDX reaction was initiated by a 5-fold dilution of the protein stock solution, in the presence and absence of compound 11b, in the corresponding Deuterated buffer at room temperature. Samples were prepared in parallel with three replicates of […]
# time point, HDX reactions were quenched with a solution of 3 M Urea and 1% TFA (pH 2.5) followed by online proteolysis with an in-house Pepsin immobilized column and desalting […]
# [5] = biological target: T2, VDR-LBD (Homo sapiens, UniProt P11473); assay: HDX-MS of VDR-LBD with ligand in the dark and under 365 nm light; assay type: binding; conditions: dark vs 365 nm illumination
# T2 construct: VDR-LBD protein stock solution was prepared in 20 mM HEPES buffer
# T2 sequence (P11473 127-423 limits assumed): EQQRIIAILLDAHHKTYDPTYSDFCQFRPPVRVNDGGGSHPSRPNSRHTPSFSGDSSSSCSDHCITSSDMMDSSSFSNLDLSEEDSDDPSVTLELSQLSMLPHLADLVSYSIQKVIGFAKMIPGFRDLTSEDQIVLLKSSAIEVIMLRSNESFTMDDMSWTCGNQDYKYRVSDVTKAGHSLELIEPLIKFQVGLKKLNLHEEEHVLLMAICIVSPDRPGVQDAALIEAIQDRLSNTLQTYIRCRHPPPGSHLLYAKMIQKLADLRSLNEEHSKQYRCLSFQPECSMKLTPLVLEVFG
# Protocol: Although previously used to study the effect of a cyclic azopeptide in its activated cis state, here we studied the target dynamics upon direct application of the light to the sample. To this aim, HDX-MS was applied for the characterization of the binding mode and modulation of receptor dynamics of the racemic compound PhotoVDRM. VDR-LBD was incubated alone (to provide an apo control for each experiment) or with an excess of compound PhotoVDRM and exposed to deuterium labeling for various periods of time, from 10 s to 2 h, in the dark and illuminated with light at 365 nm. […] As an additional control experiment, we also evaluated the HDX-MS of VDR-LBD in the presence and absence of a standard agonist, compound LSN2148936, in the dark and under illumination conditions. […] In order to permit direct comparison, including mathematical manipulation of the data in all these experiments, the observed deuterium incorporation percentages were converted to rate constants (expressed as −log10(k)) using our previously published Bayesian approach.
# as §3, with “The raw data were normalized to the effect of the buffer (0%) and the maximum response obtained with LSN2148936 (100%).” left out, “Each experiment was performed in triplicate, with 2 replicates per plate.” left out
# [6] = biological target: T1, VDR; conditions: vs other steroid receptors such as the glucocorticoid; no reference given; cited from earlier work
# [7] = biological target: T1, VDR; assay: Luminescent proximity homogeneous assay (AlphaScreen): interaction of purified VDR, RxR and TRAP220 coactivator fragment; assay type: biochemical; conditions: UVB narrowband light (315 nm) and visible illumination at 420 nm
# [8] = Serum total calcium measurement in mice (Arsenazo III); assay type: in vivo; conditions: after treatment i.p. days 2-4 (LSN2148936 0.005 mg/kg, PhotoVDRM 0.5 mg/kg), 420 or 520 nm
# [9] = system: IL-23-induced psoriatic-like inflammation; assay: IL-23-induced mouse model of psoriasis (ear thickness); assay type: in vivo, C57BL/6N mice; conditions: 420 or 520 nm light regime; i.p. LSN2148936 0.005 mg/kg
# Protocol: Each mice was administered interlueukin 23 (IL-23) once a day for a total of 3 days by intradermal injection (i.d.) into one of the mouse ears. Contralateral ear i.d. injected with PBS was used as control. Subsequently, ear thickness was measured daily, by using a digital caliper, as indicative of psoriasis-course progression (Figure A).
# (A) Temporal scheme for IL-23-induced mouse model of psoriasis. Animals were treated with IL-23 (i.d.) in the left ear during three consecutive days (days 1, 2 and 3). In addition, a contralateral control was performed consisting of PBS administration in the right ear. At day 2, 3, and 4 animals were previously intraperitoneally (i.p.) administered with vehicle (saline) and drugs (i.e., LSN2148936; 0.005 mg/kg and PhotoVDRM; 0.5 mg/kg). Both ears were irradiated with 420 or 520 nm light at day 2, 3, and 4 during 8 min. […] (C) Inflammatory ear response measurements. Mice ear thickness determination in animals administrated (ip) on days 2, 3, and 4 with vehicle, LSN2148936 or PhotoVDRM treated with 420 or 520 nm light. Each day, ear thickness was measured in millimeters and represented as percentage of ear thickness increase using the first measurement of PBS-administrated ear as control. Data is shown as mean ± SD, n = 5 mice per group. Statistical analysis between PhotoVDRM and vehicle. *P < 0.05 and **P < 0.01 Student’s t test.
# T1 sequence (P11473 whole entry, the tested form may be a part): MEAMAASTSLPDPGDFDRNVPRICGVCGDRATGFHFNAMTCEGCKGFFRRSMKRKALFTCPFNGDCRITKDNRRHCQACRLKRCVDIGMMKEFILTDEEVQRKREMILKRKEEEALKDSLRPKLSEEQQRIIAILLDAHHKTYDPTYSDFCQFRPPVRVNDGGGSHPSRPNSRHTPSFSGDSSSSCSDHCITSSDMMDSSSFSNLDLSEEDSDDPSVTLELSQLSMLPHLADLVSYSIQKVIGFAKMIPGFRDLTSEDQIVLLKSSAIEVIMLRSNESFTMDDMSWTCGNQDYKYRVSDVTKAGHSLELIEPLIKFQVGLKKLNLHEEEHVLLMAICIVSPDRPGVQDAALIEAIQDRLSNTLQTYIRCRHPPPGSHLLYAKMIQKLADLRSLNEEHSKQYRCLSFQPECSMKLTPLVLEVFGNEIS
# T1 sequence (P19793 whole entry partner, the tested form may be a part): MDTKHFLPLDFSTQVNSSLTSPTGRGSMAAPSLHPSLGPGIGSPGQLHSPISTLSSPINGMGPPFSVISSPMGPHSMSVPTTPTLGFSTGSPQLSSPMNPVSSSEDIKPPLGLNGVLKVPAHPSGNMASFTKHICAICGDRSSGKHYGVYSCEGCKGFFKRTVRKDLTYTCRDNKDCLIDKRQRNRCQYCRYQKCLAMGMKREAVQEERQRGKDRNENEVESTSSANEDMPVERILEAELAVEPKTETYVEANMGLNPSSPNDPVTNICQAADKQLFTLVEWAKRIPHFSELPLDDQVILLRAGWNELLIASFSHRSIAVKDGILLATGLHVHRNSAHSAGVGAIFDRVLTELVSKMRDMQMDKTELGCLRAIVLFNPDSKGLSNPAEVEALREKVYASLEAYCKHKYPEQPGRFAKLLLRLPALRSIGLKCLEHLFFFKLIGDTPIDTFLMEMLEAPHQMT
# T1 sequence (Q15648 whole entry partner, the tested form may be a part): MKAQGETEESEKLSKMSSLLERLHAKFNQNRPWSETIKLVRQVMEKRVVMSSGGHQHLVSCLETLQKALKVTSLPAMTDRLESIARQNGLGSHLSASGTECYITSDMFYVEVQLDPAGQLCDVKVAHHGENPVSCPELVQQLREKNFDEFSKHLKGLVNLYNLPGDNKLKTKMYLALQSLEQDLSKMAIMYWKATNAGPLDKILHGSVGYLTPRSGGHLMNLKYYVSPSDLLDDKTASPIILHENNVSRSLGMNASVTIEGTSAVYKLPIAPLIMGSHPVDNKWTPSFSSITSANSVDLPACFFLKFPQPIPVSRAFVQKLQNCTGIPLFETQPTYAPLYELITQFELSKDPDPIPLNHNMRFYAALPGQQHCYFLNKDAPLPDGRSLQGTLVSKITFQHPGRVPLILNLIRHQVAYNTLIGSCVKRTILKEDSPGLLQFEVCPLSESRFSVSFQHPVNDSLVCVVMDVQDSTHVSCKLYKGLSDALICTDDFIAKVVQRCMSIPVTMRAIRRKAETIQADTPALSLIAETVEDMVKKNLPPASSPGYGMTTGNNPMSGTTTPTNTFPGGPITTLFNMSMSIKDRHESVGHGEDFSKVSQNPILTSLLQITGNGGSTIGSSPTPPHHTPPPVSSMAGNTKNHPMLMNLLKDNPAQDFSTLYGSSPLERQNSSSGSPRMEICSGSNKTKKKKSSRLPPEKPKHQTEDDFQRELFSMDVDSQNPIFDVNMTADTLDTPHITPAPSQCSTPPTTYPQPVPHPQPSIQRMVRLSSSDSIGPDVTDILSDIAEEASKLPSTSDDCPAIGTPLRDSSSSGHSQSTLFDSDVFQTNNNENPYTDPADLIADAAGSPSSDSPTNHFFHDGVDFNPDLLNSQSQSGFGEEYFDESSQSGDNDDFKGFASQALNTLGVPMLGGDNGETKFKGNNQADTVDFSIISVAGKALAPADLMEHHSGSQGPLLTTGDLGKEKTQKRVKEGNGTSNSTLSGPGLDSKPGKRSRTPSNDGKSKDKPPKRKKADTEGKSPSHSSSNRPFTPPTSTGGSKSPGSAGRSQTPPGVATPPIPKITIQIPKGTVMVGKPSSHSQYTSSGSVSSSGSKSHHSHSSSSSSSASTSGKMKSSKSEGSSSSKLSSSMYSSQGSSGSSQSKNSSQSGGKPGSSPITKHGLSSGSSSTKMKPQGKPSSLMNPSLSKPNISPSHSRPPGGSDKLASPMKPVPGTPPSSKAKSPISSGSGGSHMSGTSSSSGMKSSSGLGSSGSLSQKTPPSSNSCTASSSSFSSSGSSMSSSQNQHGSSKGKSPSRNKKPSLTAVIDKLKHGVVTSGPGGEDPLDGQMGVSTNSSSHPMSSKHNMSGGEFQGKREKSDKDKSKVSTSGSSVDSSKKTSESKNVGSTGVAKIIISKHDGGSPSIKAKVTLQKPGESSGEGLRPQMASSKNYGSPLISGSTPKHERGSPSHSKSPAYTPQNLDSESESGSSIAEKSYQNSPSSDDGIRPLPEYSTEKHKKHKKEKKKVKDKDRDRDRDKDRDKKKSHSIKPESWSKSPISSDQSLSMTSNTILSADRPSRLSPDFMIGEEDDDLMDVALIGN
compound,measurement,setting,value
Cc1cc(/N=N/c2cccc(-c3ccc(CO)cc3C)c2)ccc1OCC(O)C(C)(C)C (centres unmarked) [Compound 12c],PSS365 (% cis),[1]; 3 min illumination 365 nm,87%
same,PSS525 (%trans),[1]; 3 min illumination 525 nm,86%
same,t 1/2 (thermal relaxation of cis),[2],23.2 h
same,λn−π* (cis),[2]; after illumination,444 nm
same,λπ–π* (trans),[2]; dark,364 nm
same,%cis at the photostationary state,[3]; 365 nm,"96,95%"
same,%trans at the photostationary state,[3]; 365 nm,"3,05%"
same,%cis at the photostationary state,[3]; 380 nm,"95,69%"
same,%trans at the photostationary state,[3]; 380 nm,"4,31%"
same,%cis at the photostationary state,[3]; 405 nm,"59,74%"
same,%trans at the photostationary state,[3]; 405 nm,"40,26%"
same,%cis at the photostationary state,[3]; 420 nm,"56,13%"
same,%trans at the photostationary state,[3]; 420 nm,"43,87%"
same,%cis at the photostationary state,[3]; 470 nm,"28,95%"
same,%trans at the photostationary state,[3]; 470 nm,"71,05%"
same,%cis at the photostationary state,[3]; 500 nm,"30,48%"
same,%trans at the photostationary state,[3]; 500 nm,"69,52%"
same,%cis at the photostationary state,[3]; 530 nm,"26,87%"
same,%trans at the photostationary state,[3]; 530 nm,"73,13%"
"CCC(CC)(c1ccc(CCC(O)C(C)(C)C)c(C)c1)c1ccc(C(=O)N(C)CC(=O)O)c(C)c1 (centres unmarked) [LSN2148936, reference compound]",Emax,"[4]; after illumination (365 nm) for 3 min, normalized to maximum response of LSN2148936 (100%), mean ± SEM",107 ± 0.08%
same,effect of application of light on activity (control),[4]; dark vs 365 nm,not affected
same,light-dependent changes of HDX behavior,[5],no significant light-dependent changes
same,selectivity for VDR,[6],highly selective
same,modulation of activity by light,[7],not
same,effect on calcium homeostasis (serum total calcium),[8],significant effects
same,IL-23-induced ear inflammation (ear thickness),[9],prevented IL-23-associated inflammatory response
